Test results published in ChEMBL document CHEMBL5120890, “Untapped Pharmaceutical Potential of 4,5,4'-Trihydroxy-3,3'-dimethoxybibenzyl for Regulating Obesity: A Cell-Based Study with a Focus on Terminal Differentiation in Adipogenesis” (J Nat Prod, 2022).
Calls of active or inactive are those of the source.

Experiments:
3T3-L1 [1] = assay: Down regulation of CDK2 protein expression in mouse 3T3-L1 cells at 0.5 to 5 uM after 18 hrs by western blot analysis; format: functional, cell-based; conditions: dose 0.5-5 µM
3T3-L1 [2] = assay: Down regulation of CDK4 protein expression in mouse 3T3-L1 cells at 0.5 to 5 uM after 18 hrs by western blot analysis; format: functional, cell-based; conditions: dose 0.5-5 µM
3T3-L1 [3] = assay: Upregulation of p27 protein expression in mouse 3T3-L1 cells at 0.5 to 5 uM after 18 hrs by western blot analysis; format: functional, cell-based; conditions: dose 0.5-5 µM
3T3-L1 [4] = assay: Upregulation of p21 protein expression in mouse 3T3-L1 cells at 0.5 to 5 uM after 18 hrs by western blot analysis; format: functional, cell-based; conditions: dose 0.5-5 µM
3T3-L1 [5] = assay: Upregulation of p18 protein expression in mouse 3T3-L1 cells at 0.5 to 5 uM after 18 hrs by western blot analysis; format: functional, cell-based; conditions: dose 0.5-5 µM
3T3-L1 [6] = assay: Down regulation of SREBP1 protein expression in mouse 3T3-L1 cells at 0.5 to 5 uM after 48 hrs by western blot analysis; format: functional, cell-based; conditions: dose 0.5-5 µM, DDE = dose-dependent effect
3T3-L1 [7] = assay: Down regulation of PPARG protein expression in mouse 3T3-L1 cells at 0.5 to 5 uM after 48 hrs by western blot analysis; format: functional, cell-based; conditions: dose 0.5-5 µM, DDE = dose-dependent effect
3T3-L1 [8] = assay: Down regulation of C/EBpalpha protein expression in mouse 3T3-L1 cells at 0.5 to 5 uM after 48 hrs by western blot analysis; format: functional, cell-based; conditions: dose 0.5-5 µM, DDE = dose-dependent effect
3T3-L1 [9] = assay: Down regulation of SREBP1 mRNA expression in mouse 3T3-L1 cells at 0.5 to 5 uM after 48 hrs by RT-qPCR analysis; format: functional, cell-based; conditions: dose 0.5-5 µM, DDE = dose-dependent effect
3T3-L1 [10] = assay: Down regulation of PPARG mRNA expression in mouse 3T3-L1 cells at 0.5 to 5 uM after 48 hrs by RT-qPCR analysis; format: functional, cell-based; conditions: dose 0.5-5 µM, DDE = dose-dependent effect
3T3-L1 [11] = assay: Down regulation of C/EBpalpha mRNA expression in mouse 3T3-L1 cells at 0.5 to 5 uM after 48 hrs by RT-qPCR analysis; format: functional, cell-based; conditions: dose 0.5-5 µM, DDE = dose-dependent effect
3T3-L1 [12] = assay: Down regulation of PLIN1 protein expression in mouse 3T3-L1 cells in early differentiation at 0.5 to 5 uM after 8 days by western blot analysis; format: functional, cell-based; conditions: dose 0.5-5 µM, time 8.0 day
3T3-L1 [13] = assay: Down regulation of LPL protein expression in mouse 3T3-L1 cells in early differentiation at 0.5 to 5 uM after 8 days by western blot analysis; format: functional, cell-based; conditions: dose 0.5-5 µM, time 8.0 day
3T3-L1 [14] = assay: Down regulation of adiponectin protein expression in mouse 3T3-L1 cells in early differentiation at 0.5 to 5 uM after 8 days by western blot analysis; format: functional, cell-based; conditions: dose 0.5-5 µM, time 8.0 day
3T3-L1 [15] = assay: Down regulation of FABP4 protein expression in mouse 3T3-L1 cells in early differentiation at 0.5 to 5 uM after 8 days by western blot analysis; format: functional, cell-based; conditions: dose 0.5-5 µM, time 8.0 day
3T3-L1 [16] = assay: Down regulation of FAS protein expression in mouse 3T3-L1 cells in maturation at 0.5 to 5 uM after 10 days by western blot analysis; format: functional, cell-based; conditions: dose 0.5-5 µM, time 10.0 day
3T3-L1 [17] = assay: Down regulation of PL1N1 protein expression in mouse 3T3-L1 cells in maturation at 0.5 to 5 uM after 10 days by western blot analysis; format: functional, cell-based; conditions: dose 0.5-5 µM, time 10.0 day
3T3-L1 [18] = assay: Down regulation of LPL protein expression in mouse 3T3-L1 cells in maturation at 0.5 to 5 uM after 10 days by western blot analysis; format: functional, cell-based; conditions: dose 0.5-5 µM, time 10.0 day
3T3-L1 [19] = assay: Down regulation of adiponectin protein expression in mouse 3T3-L1 cells in maturation at 0.5 to 5 uM after 10 days by western blot analysis; format: functional, cell-based; conditions: dose 0.5-5 µM, time 10.0 day
3T3-L1 [20] = assay: Down regulation of FABP4 protein expression in mouse 3T3-L1 cells in maturation at 0.5 to 5 uM after 10 days by western blot analysis; format: functional, cell-based; conditions: dose 0.5-5 µM, time 10.0 day
3T3-L1 [21] = assay: Down regulation of FAS mRNA expression in mouse 3T3-L1 cells in early differentiation at 0.5 to 5 uM after 8 days by RT-qPCR analysis; format: functional, cell-based; conditions: dose 0.5-5 µM, time 8.0 day
3T3-L1 [22] = assay: Down regulation of PL1N1 mRNA expression in mouse 3T3-L1 cells in early differentiation at 0.5 to 5 uM after 8 days by RT-qPCR analysis; format: functional, cell-based; conditions: dose 0.5-5 µM, time 8.0 day
3T3-L1 [23] = assay: Down regulation of LPL mRNA expression in mouse 3T3-L1 cells in early differentiation at 0.5 to 5 uM after 8 days by RT-qPCR analysis; format: functional, cell-based; conditions: dose 0.5-5 µM, time 8.0 day
3T3-L1 [24] = assay: Down regulation of adiponectin mRNA expression in mouse 3T3-L1 cells in early differentiation at 0.5 to 5 uM after 8 days by RT-qPCR analysis; format: functional, cell-based; conditions: dose 0.5-5 µM, time 8.0 day
3T3-L1 [25] = assay: Down regulation of FABP4 mRNA expression in mouse 3T3-L1 cells in early differentiation at 0.5 to 5 uM after 8 days by RT-qPCR analysis; format: functional, cell-based; conditions: dose 0.5-5 µM, time 8.0 day
3T3-L1 [26] = assay: Down regulation of FAS mRNA expression in mouse 3T3-L1 cells in maturation at 0.5 to 5 uM after 10 days by RT-qPCR analysis; format: functional, cell-based; conditions: dose 0.5-5 µM, time 10.0 day
3T3-L1 [27] = assay: Down regulation of PL1N1 mRNA expression in mouse 3T3-L1 cells in maturation at 0.5 to 5 uM after 10 days by RT-qPCR analysis; format: functional, cell-based; conditions: dose 0.5-5 µM, time 10.0 day
3T3-L1 [28] = assay: Down regulation of LPL mRNA expression in mouse 3T3-L1 cells in maturation at 0.5 to 5 uM after 10 days by RT-qPCR analysis; format: functional, cell-based; conditions: dose 0.5-5 µM, time 10.0 day
3T3-L1 [29] = assay: Down regulation of adiponectin mRNA expression in mouse 3T3-L1 cells in maturation at 0.5 to 5 uM after 10 days by RT-qPCR analysis; format: functional, cell-based; conditions: dose 0.5-5 µM, time 10.0 day
3T3-L1 [30] = assay: Down regulation of FABP4 mRNA expression in mouse 3T3-L1 cells in maturation at 0.5 to 5 uM after 10 days by RT-qPCR analysis; format: functional, cell-based; conditions: dose 0.5-5 µM, time 10.0 day
[31] = biological target: RAC-alpha serine/threonine-protein kinase (Mus musculus) (UniProt P31750); assay: Inhibition of AKT in mouse 3T3-L1 cells assessed as reduction in AKT phosphorylation in early differentiation at 0.5 to 5 uM after 48 hrs by Western blot analysis; format: cell-based; conditions: dose 0.5-5 µM
3T3-L1 [32] = assay: Activation of AMPK-ACC signalling pathway in mouse 3T3-L1 cells assessed as increase in ACC phosphorylation in early differentiation at 0.5 to 5 uM after 48 hrs by Western blot analysis; format: cell-based; conditions: filed as activator, dose 0.5-5 µM
[33] = biological target: RAC-alpha serine/threonine-protein kinase (Mus musculus) (UniProt P31750); assay: Inhibition of AKT in mouse 3T3-L1 cells assessed as reduction in AKT phosphorylation in maturation at 0.5 to 5 uM after 48 hrs by Western blot analysis; format: cell-based; conditions: dose 0.5-5 µM
3T3-L1 [34] = assay: Inhibition of AKT/GSK3beta signalling pathway in mouse 3T3-L1 cells assessed as reduction in GSK3beta phosphorylation in maturation at 0.5 to 5 uM after 48 hrs by Western blot analysis; format: cell-based; conditions: dose 0.5-5 µM
[35] = biological target: T1, 5'-AMP-activated protein kinase (Mus musculus) (UniProt Q5EG47+Q8BRK8+Q6PAM0+O54950+Q91WG5+Q9R078+Q8BGM7); assay: Activation of AMPK in mouse 3T3-L1 cells assessed as increase in AMPKalpha phosphorylation in maturation at 0.5 to 5 uM after 48 hrs by Western blot analysis; format: cell-based; conditions: filed as activator, dose 0.5-5 µM
[36] = biological target: T1, 5'-AMP-activated protein kinase (Mus musculus); assay: Activation of AMPK in mouse 3T3-L1 cells assessed as increase in AMPKbeta phosphorylation in maturation at 0.5 to 5 uM after 48 hrs by Western blot analysis; format: cell-based; conditions: filed as activator, dose 0.5-5 µM
3T3-L1 [37] = assay: Activation of AMPK-ACC signalling pathway in mouse 3T3-L1 cells assessed as increase in ACC phosphorylation in maturation at 0.5 to 5 uM after 48 hrs by Western blot analysis; format: cell-based; conditions: filed as activator, dose 0.5-5 µM

Sequence of RAC-alpha serine/threonine-protein kinase (Mus musculus) (P31750 whole entry): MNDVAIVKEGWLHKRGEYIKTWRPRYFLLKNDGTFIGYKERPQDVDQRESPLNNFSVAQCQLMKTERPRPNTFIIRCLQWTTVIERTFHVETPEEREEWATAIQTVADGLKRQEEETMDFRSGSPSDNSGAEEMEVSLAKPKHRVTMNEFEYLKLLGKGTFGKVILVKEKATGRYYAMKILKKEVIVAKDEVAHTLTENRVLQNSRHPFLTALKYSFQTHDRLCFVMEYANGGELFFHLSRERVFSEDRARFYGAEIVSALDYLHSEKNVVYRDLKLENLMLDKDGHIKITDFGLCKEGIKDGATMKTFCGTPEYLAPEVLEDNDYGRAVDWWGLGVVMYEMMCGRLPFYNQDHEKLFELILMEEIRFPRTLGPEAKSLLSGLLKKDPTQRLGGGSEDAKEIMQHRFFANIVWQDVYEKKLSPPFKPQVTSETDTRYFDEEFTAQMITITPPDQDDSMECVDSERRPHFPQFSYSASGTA

COc1cc(CCc2cc(O)c(O)c(OC)c2)ccc1O
active: Activity (3T3-L1 [1]) | Activity (3T3-L1 [2]) | Activity (3T3-L1 [3]) | Activity (3T3-L1 [4]) | Activity (3T3-L1 [5]) | Activity (3T3-L1 [6]) Dde | Activity (3T3-L1 [7]) Dde | Activity (3T3-L1 [8]) Dde | Activity (3T3-L1 [9]) Dde | Activity (3T3-L1 [10]) Dde | Activity (3T3-L1 [11]) Dde | Activity (3T3-L1 [12]) | Activity (3T3-L1 [13]) | Activity (3T3-L1 [14]) | Activity (3T3-L1 [15]) | Activity (3T3-L1 [16]) | Activity (3T3-L1 [17]) | Activity (3T3-L1 [18]) | Activity (3T3-L1 [19]) | Activity (3T3-L1 [20]) | Activity (3T3-L1 [21]) | Activity (3T3-L1 [22]) | Activity (3T3-L1 [23]) | Activity (3T3-L1 [24]) | Activity (3T3-L1 [25]) | Activity (3T3-L1 [26]) | Activity (3T3-L1 [27]) | Activity (3T3-L1 [28]) | Activity (3T3-L1 [29]) | Activity (3T3-L1 [30]) | inhibition [31] | Activity (3T3-L1 [32]) | inhibition [33] | inhibition (3T3-L1 [34]) | Activity [35] | Activity [36] | Activity (3T3-L1 [37])
